The numbers were not newly measured in patent publication US20050266049A1, “Method for the covering of food with polyene antifungal compositions” (D S M IP Assets B.V., priority 2002, published 2005), which cites them from elsewhere.

`C[C@@H]1C/C=C/C=C/C=C/C=C/[C@H](O[C@@H]2O[C@H](C)[C@@H](O)[C@H](N)[C@@H]2O)C[C@@H]2O[C@](O)(C[C@@H](O)C[C@H]3O[C@@H]3/C=C/C(=O)O1)C[C@H](O)[C@H]2C(=O)O` [natamycin]: the “solubility of natamycin in water” value is 30-50 ppm. In the data set on most foodborn fungi, the “Minimal Inhibitory Concentration (MIC)” value is reported as “less than 10 ppm”.
